tested on: PABPC1 PABC; format: binding, human; conditions: DMS-BM library, bait PABPC1 PABC, prey ATXN2, peptide TLNPNAKEFNPRSFSQ; P = wild type, row aa = residue at this position

Sequence | DMS-derived PSSM value, position P11
TLNPNAKEFNPRSFSQ P11Y (TLNPNAKEFNYRSFSQ) | 0.04593

same assay, conditions: DMS-BM library, bait PABPC1 PABC, prey ATXN2, peptide TLNPNAKEFNPRSFSQ; R = wild type, row aa = residue at this position

Sequence | DMS-derived PSSM value, position R12
TLNPNAKEFNPRSFSQ R12A (TLNPNAKEFNPASFSQ) | 0.004965
TLNPNAKEFNPRSFSQ R12D (TLNPNAKEFNPDSFSQ) | 0.05154
TLNPNAKEFNPRSFSQ R12E (TLNPNAKEFNPESFSQ) | 0.01629
TLNPNAKEFNPRSFSQ R12F (TLNPNAKEFNPFSFSQ) | 0.03143
TLNPNAKEFNPRSFSQ R12G (TLNPNAKEFNPGSFSQ) | 0.02158
TLNPNAKEFNPRSFSQ R12H (TLNPNAKEFNPHSFSQ) | 0.186
TLNPNAKEFNPRSFSQ R12I (TLNPNAKEFNPISFSQ) | 0.04014
TLNPNAKEFNPRSFSQ R12K (TLNPNAKEFNPKSFSQ) | 0.01776
TLNPNAKEFNPRSFSQ R12L (TLNPNAKEFNPLSFSQ) | 0.01731
TLNPNAKEFNPRSFSQ R12M (TLNPNAKEFNPMSFSQ) | 0.04074
TLNPNAKEFNPRSFSQ R12N (TLNPNAKEFNPNSFSQ) | 0.04731
TLNPNAKEFNPRSFSQ R12P (TLNPNAKEFNPPSFSQ) | 0.005288
TLNPNAKEFNPRSFSQ R12Q (TLNPNAKEFNPQSFSQ) | 0.0158
TLNPNAKEFNPRSFSQ R12S (TLNPNAKEFNPSSFSQ) | 0.1947
TLNPNAKEFNPRSFSQ R12T (TLNPNAKEFNPTSFSQ) | 0.06242
TLNPNAKEFNPRSFSQ R12V (TLNPNAKEFNPVSFSQ) | 0.1384
TLNPNAKEFNPRSFSQ R12W (TLNPNAKEFNPWSFSQ) | 0.01782
TLNPNAKEFNPRSFSQ R12Y (TLNPNAKEFNPYSFSQ) | 0.05186

same assay, conditions: DMS-BM library, bait PABPC1 PABC, prey ATXN2, peptide TLNPNAKEFNPRSFSQ; S = wild type, row aa = residue at this position

Sequence | DMS-derived PSSM value, position S13 | DMS-derived PSSM value, position S15
TLNPNAKEFNPRSFSQ S13A (TLNPNAKEFNPRAFSQ) | 0.2244 | 
TLNPNAKEFNPRSFSQ S13D (TLNPNAKEFNPRDFSQ) | 0.05929 | 
TLNPNAKEFNPRSFSQ S13E (TLNPNAKEFNPREFSQ) | 0.006231 | 
TLNPNAKEFNPRSFSQ S13F (TLNPNAKEFNPRFFSQ) | 0.004247 | 
TLNPNAKEFNPRSFSQ S13G (TLNPNAKEFNPRGFSQ) | 0.1675 | 
TLNPNAKEFNPRSFSQ S13H (TLNPNAKEFNPRHFSQ) | 0.01388 | 
TLNPNAKEFNPRSFSQ S13I (TLNPNAKEFNPRIFSQ) | 0 | 
TLNPNAKEFNPRSFSQ S13K (TLNPNAKEFNPRKFSQ) | 0.007933 | 
TLNPNAKEFNPRSFSQ S13L (TLNPNAKEFNPRLFSQ) | 0.06939 | 
TLNPNAKEFNPRSFSQ S13M (TLNPNAKEFNPRMFSQ) | 0.008683 | 
TLNPNAKEFNPRSFSQ S13N (TLNPNAKEFNPRNFSQ) | 0.07115 | 
TLNPNAKEFNPRSFSQ S13P (TLNPNAKEFNPRPFSQ) | 0.0852 | 
TLNPNAKEFNPRSFSQ S13Q (TLNPNAKEFNPRQFSQ) | 0.0185 | 
TLNPNAKEFNPRSFSQ S13R (TLNPNAKEFNPRRFSQ) | 0.001962 | 
TLNPNAKEFNPRSFSQ S13T (TLNPNAKEFNPRTFSQ) | 0.105 | 
TLNPNAKEFNPRSFSQ S13V (TLNPNAKEFNPRVFSQ) | 0.02255 | 
TLNPNAKEFNPRSFSQ S13W (TLNPNAKEFNPRWFSQ) | 0.02517 | 
TLNPNAKEFNPRSFSQ S13Y (TLNPNAKEFNPRYFSQ) | 0.04643 | 
TLNPNAKEFNPRSFSQ S15A (TLNPNAKEFNPRSFAQ) |  | 0.02541
TLNPNAKEFNPRSFSQ S15D (TLNPNAKEFNPRSFDQ) |  | 0.0138

Reference: article PMC12102759 (Protein Science : A Publication of the Protein Society, 2025)
